# How the values were obtained:
# Tas2r105 [1] = target: T1, Tas2r105 (Mus musculus, UniProt Q9JKT4); experiment: calcium mobilization in transfected HEK293; assay type: cell-based; conditions: agonist, Gα16gust44 co-expressed
# T1 construct: coding region amplified from WT mouse taste bud cDNA; N-terminal tag of first 45 residues of rat somatostatin receptor 3; pcDNA3.1/Zeo(+); transient in HEK293 (PEAKrapid) with chimeric reporter G protein Galpha16gust44
# T1 sequence (Q9JKT4 1-300): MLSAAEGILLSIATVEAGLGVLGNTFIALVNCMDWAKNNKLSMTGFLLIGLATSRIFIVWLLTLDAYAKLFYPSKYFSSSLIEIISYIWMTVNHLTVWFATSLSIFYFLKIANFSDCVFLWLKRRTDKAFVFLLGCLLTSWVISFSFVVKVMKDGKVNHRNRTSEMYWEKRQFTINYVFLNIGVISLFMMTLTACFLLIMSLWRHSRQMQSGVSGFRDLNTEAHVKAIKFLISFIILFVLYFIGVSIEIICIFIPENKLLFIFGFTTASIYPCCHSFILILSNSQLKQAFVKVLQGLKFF
# Tas2r105 [2] = target: T1, Tas2r105; experiment: calcium mobilization in transfected HEK293, fluorescence dose-response; assay type: cell-based
compound,measurement,setting,value
CCCCCCCC(=O)N[C@H]1CCOC1=O [C8-HSL],calcium mobilization in transfected HEK293,Tas2r105 [1]; synthetic compound,two synthetic HSLs: 3-oxo-C12-HSL and C8-HSL
CCCCCCCCCC(=O)CC(=O)N[C@H]1CCOC1=O [LasI],EC50,Tas2r105 [2],8.9 µM
CC[N+](CC)(CC(=O)Nc1c(C)cccc1C)Cc1ccccc1 [denatonium benzoate],calcium mobilization in transfected HEK293,Tas2r105 [1],Tas2r105 was also activated by the bitter compounds denatonium benzoate (Den)

# Reference: publication PMC6776549, “Gingival solitary chemosensory cells are immune sentinels for periodontitis” (Nature Communications, 2019)
